Data on five molecules can be found in patent US9650405B2, “Modified sophorolipids as oil solubilizing agents” (Polytechnic Institute of New York University, priority 2010, dated 2017).

Data set [1] in a line: Surface tension versus surfactant concentration: CMC and minimum surface tension. Particulars: SL-amides; 25° C. In kind it is physicochemical. The protocol: The surface tension change with the increase of surfactant concentration of a series of SL amides was measured at 25° C. and the results are shown in Table 2. CMC and minimum surface tension (MST) decrease as the chain length of the n-alkyl amide moiety increase. […] This trend can be explained by the increased hydrophobicity of the surfactant hydrophobic tail with increased chain length of the n-alkyl amide.
The relation of CMC within a homologous series of surfactants and the carbon chain length (straight-chain), n, is usually described as: Log (CMC)=A−Bn (1)
Where A and B are constants specific to the series and n is the carbon on the hydrophobic chains. It was reported that the CMC of alkyl-β-D-glucoside decreased by ⅓ for each additional CH2 group (L. Zhang. D.E.S. Thesis, Columbia University). For a series of SL-esters prepared from n-alkanols of varying chain length, the CMC decreased by ½ per additional CH2 group (L. Zhang Colloid Surface, 240, 2004, 75).

The nature of data set [2]: Solubility of MSLs in water. From the text:
If the material precipitates upon cooling or was to some extent insoluble, the insoluble material was separated by filtration, dried and weighed.

Data set [3] can be described thus: Emulsion type: dilution test and oil soluble dye staining. In kind it is physicochemical. The note with it: for emulsion type by Oil Red O staining: 2%-by-weight relative to water phase, oil/water 5/5 and 7/3. The protocol:
In this test the emulsion is diluted either with oil (O) or water (W). If the emulsion is O/W type and it is diluted with water, it will remain stable as water is the dispersion medium. However, if the emulsion is O/W type and it is diluted with oil, the emulsion will break as oil and water are not miscible with each other. […] Emulsions of the O/W type have separated layers after dilution with pure oil but form a homogenous phase when diluted by water. Unless otherwise specified, the emulsion type formed by MSLs were oil in water.
In FIG. 13B, the tube on the left was diluted with 1 mL of oil whereas the tube on right was diluted with water. Visual observation of the tubes in FIG. 13B supports that the emulsions formed are indeed O/W emulsions.
Oil Red O was applied as an oil soluble dye and emerald green as water soluble dye in the process of emulsion preparation. Observations of emulsions were made before and after staining under optical microscope at 400× magnification (FIG. 14). […] The formation of O/W emulsions and not W/O emulsions with this set of MSL compounds would not be obvious to one skilled in the art. We believe that O/W emulsions are formed by this set of MSLs due to that large sophorose polar head groups requires relatively more space than the lipid tails and, therefore self-assemble into spherical type structures where disaccharide groups are locating outside the droplets.

A short description of data set [4]: Emulsion droplet size distribution, Coulter LS 230 analyzer. In kind it is physicochemical. The note with it: paraffin oil-to-water 7:3 v/v, 25° C. The protocol: Emulsified oil droplet size (average and standard deviation) was measured after suitable dilution of the emulsion phase using a Coulter LS 230 analyzer. […] Relative to natural and lactonic SL, selected MSLs show improved properties as emulsifiers on paraffin oil.
After being aged for 3-months, emulsified oil droplet size (average and standard deviation) was measured after suitable dilution of the emulsion phase using a Coulter LS 230 analyzer and the results are listed in Table 5. […] However, increasing the surfactant concentration from 1 to 2% did result in substantially smaller emulsion-phase droplet sizes. […] This is evidence that MSL's can stabilize oil phases greatly decreasing their tendency to undergo coalescence. […] It follows that the results of 3-month aging studies support the utility of selected MSLs for formation and stabilization of oil-in-water emulsions of paraffin oil phases. One skilled in the art would expect that the ability of these MSLs to stabilize paraffin oil phases teaches that they would also stabilize oil phases of similar structure.

Data set [5] can be described thus: Emulsion stability based on phase separation. In kind it is physicochemical. The note with it: for emulsion layer percentage: paraffin oil/water 5/5, 2%-by-weight emulsifier, after 24 hours at 25° C. As for the experimental part: The emulsion was obtained by homogenizing the oil and water mixture and was allowed to settle at room temperature for 24 hours. […] Then, this mixture was homogenized at 13,000 rpm for 2 minutes. Thereafter, the resulting emulsion was left unagitated at 25° C. for 24 hours. Surfactants which give a larger emulsion phase are denoted as having higher emulsion effectiveness (Process Safety and Environment protection, 2005, 83, 38-46). […] Thus, unexpectedly, that longer alkyl chains, at least up to butyl and hexyl, provided improved interfacial stability at the paraffin oil/water interface. […] Apparently, ester bonds of SL-esters are less disruptive to organization at the oil water interface than amide bonds of SL-amides. […] The acidic SL (3) gave an 8% emulsion layer, much lower than the MSL examples given herein. Similarly, the natural SL (1) mixture gave a 10% emulsion layer. This performance is also far below that of SL-butyl amide (24), hexyl amide (25), butyl ester (8) and hexyl ester (16).
After homogenized at 13,000 rpm for 2 minutes, the emulsions were kept at room temperature and separation of the respective oil, emulsion and water layers was recorded for up to 1 month.

Data set [6] can be described thus: Emulsion viscosity measurement. The format is physicochemical. Particulars: oil/water 7/3, 1% MSL, shear rate 1 S^−1. The protocol:
Viscosity was measured at 25° C. with increasing shear rate from 1 S^−1 to 750 S^−1. The viscosity change was monitored for aging times up to 3 months. For all samples, the paraffin oil/water ratio is 7/3 and the surfactant concentrations studied were 0.5%, 1% to 2%-by-weight relative to the oil phase. FIG. 19 presents the viscosity change with shear rate for different aging times. […] The emulsion tested was prepared using 2%-by-weight SL-butyl ester relative to paraffin oil. Viscosity decreases with increased shear rate implying the emulsion follows shear shinning. Furthermore, viscosity decreased with increased storage time. […] This change is consistent with the small increase in oil phase particle size (1.7 to 2.1 μm) with aging from 1 day to 3-months (Tables 4 and 5).
Values of ηlow decreased with storage time to various extents that are dependent on the MSL compound used to stabilize the emulsion. […] The relative ability of different MSL structures to stabilize emulsions and thereby decrease the extent of decrease in viscosity as a function of aging time would not be predictable by one skilled in the art. The behavior as a function of MSL structure is related to emulsion dispersed phase droplet size. That is, the smaller the change in droplet size, the less decrease in emulsion viscosity occurs with increased aging time. Smaller changes in droplet size reflects the ability of the emulsifier to better stabilize particles. For example, the viscosity of the emulsion stabilized by SL-butyl amide decreased by 65% (from 344 Pas to 120 Pas) whereas the viscosity of the emulsion stabilized by SL-hexyl ester decreased by 20% (from 457 Pas to […]).
The viscosity was measured 24 hours after emulsion preparation. The viscosity increased with increasing surfactant concentration. Such behavior could not have been predicted by one skilled in the art without the teaching provided in this disclosure. The extent of viscosity change with surfactant concentration is related to the interfacial free energy at the droplet surface that reduces with the increase of surfactant concentration.

Data set [7] in a line: Solubility in distilled water without additives, compounds alone and mixed. The note with it: without any additives.
The conditions of data set [8]: SL-esters; from earlier publication in Colloids and surfaces, 2004, 240, 75; cited from earlier work.
Data set [9] is described as follows: Crude oil clearing/displacement activity. Particulars: 20 μL of 1 mg/mL solution. The protocol:
Oil cleaning assays were performed using Louisiana Crude, Arabian Light Crude, and Prudhoe Bay Crude as the oil phase. In one study, the oil clearing/displacement activity of MSLs were assessed using a crude oil layer on top of sea water in order to simulate oil spill type conditions. Sea water (20 mL) was transferred to plastic Petri dishes and 20 μL of a crude oil type was added on top of the water to create an oil layer. Subsequently, a 20 μL aliquot of MSL solution (1 mg/mL) was added dropwise to the top of the oil layer. The instantaneous formation of an oil clearing zone as well as the diameter of the clearing zone was determined as a function of the dispersant used. […] Furthermore, the oil displacement activity of SL-ethyl ester and SL-butyl ester was slightly higher than Triton-X-100 for Arabian Light crude.

Like-named read-outs stand apart in the source and are kept apart here.

Usually Solubility stands for the dissolved amount per volume that the medium holds. Lower therefore signals little dissolved substance. For `CCCCCCNC(=O)CCCCCCCC=CCCCCCCC(C)OC1OC(CO)C(O)C(O)C1OC1OC(CO)C(O)C(O)C1O` (stereo not drawn) [Compound 25, SL-Hexyl Amide], the “CMC Range” value in data set [1] was 29-32 10^−6M. The “MST (minimum surface tension)” value in [1] worked out at 36.5 mN/m. The Solubility in data set [2] (distilled water, 25° C.) is recorded as less than 11 mg/mL. Moreover, the “emulsion type by Oil Red O staining” value in data set [3] was “O/W”. For the same molecule, the “emulsion type by dilution test” value in data set [3] (2 weight % emulsifier, water/oil ratio 5/5, paraffin) is on record as “O/W emulsions”. Further, the Average droplet size is given as 2.7 ± 0.4 μm in data set [4] (0.5 weight %, 24 hours); 4.0 ± 0.4 μm in [4] (0.5 weight %, aged 3-months); 2.7 ± 0.2 μm in data set [4] (1 weight %, 24 hours); 3.7 ± 0.7 μm in [4] (1 weight %, aged 3-months); 1.7 ± 0.1 μm in data set [4] (2 weight %, 24 hours); 2.2 ± 0.5 μm in data set [4] (2 weight %, aged 3-months). Besides, the “emulsion layer volume-%, one month” value in data set [5] (oil/water 5/5, 2%-by-weight, one month at room temperature) amounted to 10%. Also, the “emulsion layer volume-%, start” value in data set [5] (oil/water 5/5, 2%-by-weight, start of aging) was 65%. The emulsion layer percentage in data set [5] was determined as 60%.

`CCCCNC(=O)CCCCCCCC=CCCCCCCC(C)OC1OC(CO)C(O)C(O)C1OC1OC(CO)C(O)C(O)C1O` (stereo not drawn) [Compound 24, SL-Butyl Amide]: the “CMC Range” value in data set [1] was 45-50 10^−6M. Moreover, the “MST (minimum surface tension)” value in data set [1] is reported as 38.7 mN/m. In [2], this molecule gave a Solubility of more than 40 mg/mL. In data set [6], the “low shear emulsion viscosity, after aging period” value was 120 Pas. The “low shear emulsion viscosity, before aging” value in data set [6] was found to be 344 Pas. Further, in data set [6], the “viscosity decrease over the aging period” value is reported as 65%. Moreover, in data set [3], the “emulsion type by Oil Red O staining” value is recorded as “O/W”. Moreover, the Average droplet size is reported as 3.0 ± 0.2 μm in data set [4] (0.5 weight %, 24 hours); 6.3 ± 1.0 μm in data set [4] (0.5 weight %, aged 3-months); 2.5 ± 0.2 μm in [4] (1 weight %, 24 hours); 4.7 ± 0.8 μm in data set [4] (1 weight %, aged 3-months); 1.9 ± 0.1 μm in data set [4] (2 weight %, 24 hours); 3.0 ± 0.4 μm in data set [4] (2 weight %, aged 3-months). Besides, the “emulsion layer in 3 days” value in data set [5] (oil/water 5/5, 2%-by-weight, 3 days) is on record as “not observed in 3 days”. The same molecule yielded an emulsion layer percentage in [5] of 20%.

Turning to `CCNC(=O)CCCCCCCC=CCCCCCCC(C)OC1OC(CO)C(O)C(O)C1OC1OC(CO)C(O)C(O)C1O` (stereo not drawn) [Compound 23, SL-Ethyl Amide], in [1], the “CMC Range” value is 300-310 10^−6M and the “MST (minimum surface tension)” value is 40.9 mN/m. Also, the Solubility in data set [2] is listed as more than 40 mg/mL. In addition, the “emulsion type by Oil Red O staining” value in data set [3] is on record as “O/W”. Besides, in data set [5], the emulsion layer percentage entry is listed as “no emulsion layer was observed”.

Take `COC(=O)CCCCCCCC=CCCCCCCC(C)OC1OC(CO)C(O)C(O)C1OC1OC(CO)C(O)C(O)C1O` (stereo not drawn) [Compound 6, SL-Methyl Ester]: in data set [7], the “solubility in distilled water” value is recorded as “less than 1 mg/L”. The Solubility is less than 1 mg/mL in data set [2] (distilled water, 25° C.) and less than 1 mg/mL in data set [2] (distilled water, 25° C., listed as methyl ester). The “CMC Range” value in [8] is 95-100 10^−6M. Also, in [8], the “MST (minimum surface tension)” value is 38.4 mN/m. Moreover, in [3], the “emulsion type by Oil Red O staining” value is “O/W”. The “Oil displacement activity (diameter of the clearing zone)” value amounted to 5.5 ± 0.1 cm in data set [9] (Arabian Light Crude on sea water), 6.5 ± 0.4 cm in data set [9] (Louisiana Crude on sea water) and 6.9 ± 0.1 cm in data set [9] (Prudhoe Bay Crude on sea water). Besides, the emulsion layer percentage result in data set [5] was “no emulsion layer was observed”.

Consider `CNC(=O)CCCCCCCC=CCCCCCCC(C)OC1OC(CO)C(O)C(O)C1OC1OC(CO)C(O)C(O)C1O` (stereo not drawn) [Compound 22, SL-Methyl Amide], for which, in data set [1], the “CMC Range” value was 650-670 10^−6M and the “MST (minimum surface tension)” value is recorded as 43.3 mN/m. Also, the “emulsion type by Oil Red O staining” value in data set [3] is “O/W”. The emulsion layer percentage result in [5] is given as “no emulsion layer was observed”.
